Counter-ions that a name gives are not always drawn. Like-named read-outs stand apart in the source and are kept apart here.
Experiments:
[1] = Stability studies of sitagliptin salts (10 months storage; HPLC, XRD, visual inspection); type: physicochemical; settings: for Purity (HPLC) 10 months later / Aspect/Colour 10 months later / XRD analysis 10 months later: stored 10 months at room temperature, normal pressure, ambient atmosphere; for Aspect/Colour 10 months later: visual inspection; for Stability in terms of polymorphic form: after ten months of storage; for XRD analysis 10 months later: initial XRD Form I
Procedure: The XRD diffractograms were obtained using a RX SIEMENS D5000 diffractometer with a vertical goniometer, a copper anodic tube, and radiation CuKα, λ=1.54056.
Mobile phase A was a mixture of methanol and 5 mM dibasic sodium phosphate buffer, pH=7.0 (70:30, v/v). The buffer was prepared by dissolving 0.217 g of dibasic sodium phosphate in 300 mL of water and adjusting the pH of the solution to 7.0±0.1 with phosphoric acid, and filtered through a 0.22 μm nylon membrane under vacuum. Mobile phase B was methanol.
The following gradient was used: […]
The samples were analyzed after 10 months by HPLC, XRD, and visual inspection.

[2] = room temperature
[3] = listed as sitagliptin ethanedisulfonate Form I
[4] = listed as sitagliptin galactarate Form I

Molecule | Purity (HPLC) 10 months later [1] | Aspect/Colour 10 months later [1] | XRD analysis 10 months later [1] | further results
NC(CC(=O)N1CCn2c(nnc2C(F)(F)F)C1)Cc1cc(F)c(F)cc1F.O=C(O)C(O)C(O)C(O)C(O)CO [D-Gluconate, sitagliptin D-gluconate] | 96.29% | beige | – | –
N[C@@H](CC(=O)N1CCn2c(nnc2C(F)(F)F)C1)Cc1cc(F)c(F)cc1F.O=S(=O)(O)CCS(=O)(=O)O [Ethane-disulfonate, sitagliptin ethanedisulfonate] | 99.83% | off-white | Form I | Stability in terms of polymorphic form [1]: highly stable; Purity (HPLC) 10 months later [1, 3]: higher than 99.8%; Descriptive term (solubility in water) [2]: Freely soluble; Descriptive term (solubility in water) [2, 3]: freely soluble
N[C@@H](CC(=O)N1CCn2c(nnc2C(F)(F)F)C1)Cc1cc(F)c(F)cc1F.O=C(O)[C@@H](O)[C@H](O)[C@H](O)[C@@H](O)C(=O)O [Galactarate, sitagliptin galactarate] | 99.15% | off-white | Form I | Stability in terms of polymorphic form [1]: highly stable; Purity (HPLC) 10 months later [1, 4]: higher than 99.1%; Descriptive term (solubility in water) [2]: Sparingly soluble; Descriptive term (solubility in water) [2, 4]: sparingly soluble
N[C@@H](CC(=O)N1CCn2c(nnc2C(F)(F)F)C1)Cc1cc(F)c(F)cc1F [Hydrobromide, sitagliptin hydrobromide] | 98.92% | off-white | Form I | –
N[C@@H](CC(=O)N1CCn2c(nnc2C(F)(F)F)C1)Cc1cc(F)c(F)cc1F.N[C@@H](CC(=O)O)C(=O)O [L-aspartate, sitagliptin L-aspartate] | 97.14% | white | – | –
N#CS.N[C@@H](CC(=O)N1CCn2c(nnc2C(F)(F)F)C1)Cc1cc(F)c(F)cc1F [Thiocyanate, sitagliptin thiocyanate] | 99.22% | light pink | Form I | Stability in terms of polymorphic form [1]: highly stable; Purity (HPLC) 10 months later ([1]; listed as sitagliptin thiocyanate Form I): higher than 99.2%
sitagliptin (S)-pyroglutamate | 98.64% | off-white | – | –
sitagliptin acetate | 98.90% | off-white | – | –
sitagliptin hemi-L-malate | 98.91% | – | – | –
sitagliptin oxalate | 95.95% | white | Form I | –
sitagliptin succinate | 98.88% | off-white | – | –

Source: patent publication US8389724B2, “Crystalline salt forms of a 5,6,7,8-tetrahydro-1,2,4-triazolo[4,3-a]pyrazine derivative” (Corporacion Medichem, S.L., priority 2008, dated 2013)
